From patent publication US10179785B2, “Imidazotriazinone or imidazopyrazinone derivatives, and use thereof” (ST PHARM CO., LTD., priority 2014, dated 2019)
Structures can show the parent of a compound that is named as a salt.

Each molecule was assayed against T1, tankyrase 1 (Homo sapiens, UniProt O95271) (assay: Analysis of activity of tankyrase 1 (Trevigen kit, ELISA absorbance at 450 nm)). Conditions: not given.
T1 construct: purchased Trevigen 4700-096-K
T1 sequence (O95271 1-1327): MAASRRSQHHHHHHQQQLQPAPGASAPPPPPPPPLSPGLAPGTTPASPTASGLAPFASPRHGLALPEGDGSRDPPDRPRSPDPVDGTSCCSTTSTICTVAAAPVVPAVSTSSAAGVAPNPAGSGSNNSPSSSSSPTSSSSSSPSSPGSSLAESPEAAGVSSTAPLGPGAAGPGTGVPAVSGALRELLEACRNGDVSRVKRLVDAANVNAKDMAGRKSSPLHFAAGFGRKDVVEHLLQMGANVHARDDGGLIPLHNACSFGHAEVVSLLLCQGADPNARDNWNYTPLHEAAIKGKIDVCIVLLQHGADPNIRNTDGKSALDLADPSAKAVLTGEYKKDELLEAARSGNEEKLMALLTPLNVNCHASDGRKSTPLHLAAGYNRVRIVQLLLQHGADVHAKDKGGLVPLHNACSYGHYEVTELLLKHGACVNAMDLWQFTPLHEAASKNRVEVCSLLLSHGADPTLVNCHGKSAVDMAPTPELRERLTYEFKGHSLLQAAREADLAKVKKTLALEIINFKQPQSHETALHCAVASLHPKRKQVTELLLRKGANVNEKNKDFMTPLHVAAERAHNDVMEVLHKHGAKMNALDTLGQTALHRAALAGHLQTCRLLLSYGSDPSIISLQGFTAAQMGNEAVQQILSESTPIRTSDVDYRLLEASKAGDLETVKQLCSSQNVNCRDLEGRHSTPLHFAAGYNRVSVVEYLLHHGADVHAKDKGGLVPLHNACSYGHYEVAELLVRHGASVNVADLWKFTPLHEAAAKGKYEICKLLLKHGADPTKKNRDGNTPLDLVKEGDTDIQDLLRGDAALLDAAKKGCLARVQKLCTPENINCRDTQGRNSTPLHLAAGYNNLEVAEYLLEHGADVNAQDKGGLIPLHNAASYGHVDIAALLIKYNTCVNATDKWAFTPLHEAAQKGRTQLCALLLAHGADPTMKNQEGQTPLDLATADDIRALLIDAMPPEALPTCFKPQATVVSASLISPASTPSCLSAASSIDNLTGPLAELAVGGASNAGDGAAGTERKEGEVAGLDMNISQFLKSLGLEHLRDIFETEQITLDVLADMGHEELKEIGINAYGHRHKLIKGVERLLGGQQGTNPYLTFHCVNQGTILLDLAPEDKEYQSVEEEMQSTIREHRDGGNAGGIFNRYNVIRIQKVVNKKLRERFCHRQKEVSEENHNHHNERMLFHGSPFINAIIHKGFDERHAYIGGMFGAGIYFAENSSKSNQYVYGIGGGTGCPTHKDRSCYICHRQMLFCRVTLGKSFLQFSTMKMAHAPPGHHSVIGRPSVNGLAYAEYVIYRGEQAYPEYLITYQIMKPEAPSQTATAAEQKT
Format: biochemical
Experimental: Activities of novel compounds synthesized according to Examples 1 to 48 against tankyrase 1 were analyzed using a Trevigen kit (Cat. No. 4700-096-K). Poly PAR histone protein-coated 96-well plate, anti-PAR monoclonal antibody and goat anti-mouse IgG-HRP were used for measurement of absorbance by ELISA method. Specifically, 20× I-PAR assay buffer was diluted to 1× by adding water, and 50 μL of the diluted buffer was added to each well of the 96-well plate followed by reacting at rt for 30 min. Then, the supernatant was completely removed from each well and 10 μL of 1× I-PAR assay buffer and 15 μL of assay substrate were added to each well along with 1 μL of a 50× solution of inhibitors to be tested, which were the compounds obtained in the Examples 1 to 48. 10 m Units/μL of tankyrase 1 enzyme was diluted 50-fold with 1× I-PAR assay buffer and 25 μL of the diluted enzyme was added to each well and reacted while stirring at rt for 30 min. One without any compound of the present invention was used as a positive control and another containing 1× I-PAR assay buffer with the same volume instead of tankyrase 1 enzyme was used as a negative control. Upon completion of the reaction, 200 μL of PBSX, which was prepared by adding 0.1% triton X-100 to PBS, was added and removed and this washing process was repeated twice. Washing was repeated twice more using PBS in the same manner. 5× antibody diluent was diluted with distilled water to 1× concentration, 50 μL of the diluted goat anti-mouse IgG-HRP to 1/2000 was added to each well and reacted while stirring at rt for 30 min. Washes were carried out twice using PBSX and PBS, respectively. After addition of 50 μL of TACS-sapphire to each well of the plate, the plate was blocked from light to react for 10 min to 15 min and the color of the reaction solution turned blue. To stop the reaction, 50 μL of 0.2N HCl was added to turn the solution yellow. Finally, the absorbance of the resulting solution was measured at 450 nm.

IC50 [nM] | SMILES
110 | Cc1ncc2c(=O)[nH]c(N3CCN(c4ccccc4F)CC3)nn12 [compound 1, 2-(4-(2-Fluorophenyl)piperazin-1-yl)-7-methylimidazo[1,5-f][1,2,4]triazin-4(3H)-one]
31.8 | COCCOc1cc(F)c(N2CCN(c3nn4c(C)ncc4c(=O)[nH]3)CC2)c(F)c1 [compound 2, 2-(4-(2,6-Difluoro-4-(2-methoxyethoxy)phenyl)piperazin-1-yl)-7-methylimidazo[1,5-f][1,2,4]triazin-4(3H)-one]
96.3 | Cc1ncc2c(=O)[nH]c(N3CCN(c4c(F)cc(OC5COC5)cc4F)CC3)nn12 [compound 12, 2-(4-(2,6-Difluoro-4-(oxetan-3-yloxy)phenyl)piperazin-1-yl)-7-methylimidazo[1,5-f][1,2,4]triazin-4(3H)-one]
17.9 | Cc1ncc2c(=O)[nH]c(N3CCN(c4c(F)cccc4F)CC3)nn12 [compound 15, 2-(4-(2,6-Difluorophenyl)piperazin-1-yl)-7-methylimidazo[1,5-f][1,2,4]triazin-4(3H)-one]

Same assay, conditions: Trevigen kit Cat. No. 4700-096-K; reaction at rt for 30 min; read-out: TNKS1 (IC50)

IC50 [nM] | SMILES
494 | Cc1ncc2c(=O)[nH]c(N3CCN(c4c(F)cc(OCc5ccccc5)cc4F)CC3)nn12 [compound 3, 2-(4-(4-(Benzyloxy)-2,6-difluorophenyl)piperazin-1-yl)-7-methylimidazo[1,5-f][1,2,4]triazin-4(3H)-one]
32.3 | Cc1ncc2c(=O)[nH]c(N3CCN(c4c(F)cc(OCCN5CCOCC5)cc4F)CC3)nn12 [compound 4, 2-(4-(2,6-Difluoro-4-(2-morpholinoethoxy)phenyl)piperazin-1-yl)-7-methylimidazo[1,5-f][1,2,4]triazin-4(3H)-one]
25.2 | Cc1ncc2c(=O)[nH]c(N3CCN(c4c(F)cc(OCCN5CCCCC5)cc4F)CC3)nn12 [compound 5, 2-(4-(2,6-Difluoro-4-(2-(piperidin-1-yl)ethoxy)phenyl)piperazin-1-yl)-7-methylimidazo[1,5-f][1,2,4]triazin-4(3H)-one]
19.6 | Cc1ncc2c(=O)[nH]c(N3CCN(c4c(F)cc(OCCN(C)C)cc4F)CC3)nn12 [compound 6, 2-(4-(4-(2-(Dimethylamino)ethoxy)-2,6-difluorophenyl)piperazin-1-yl)-7-methylimidazo[1,5-f][1,2,4]triazin-4(3H)-one]
38.7 | Cc1ncc2c(=O)[nH]c(N3CCN(c4c(F)cc(OCCO)cc4F)CC3)nn12 [compound 7, 2-(4-(2,6-Difluoro-4-(2-hydroxyethoxy)phenyl)piperazin-1-yl)-7-methylimidazo[1,5-f][1,2,4]triazin-4(3H)-one]
43.6 | Cc1ncc2c(=O)[nH]c(N3CCN(c4c(F)cc(OCCOC(=O)[C@H](C)N)cc4F)CC3)nn12 [compound 8, (S)-2-(3,5-Difluoro-4-(4-(7-methyl-4-oxo-3,4-dihydroimidazo[1,5-f][1,2,4]triazin-2-yl)piperazin-1-yl)phenoxy)ethyl 2-aminopropionate hydrochloride]
79.5 | Cc1ncc2c(=O)[nH]c(N3CCN(c4c(F)cc(OCC(O)CO)cc4F)CC3)nn12 (stereo not shown) [compound 9, 2-(4-(4-(2,3-Dihydroxypropoxy)-2,6-difluorophenyl)piperazin-1-yl)-7-methylimidazo[1,5-f][1,2,4]triazin-4(3H)-one]
48.8 | Cc1ncc2c(=O)[nH]c(N3CCN(c4c(F)cc(CN5CCOCC5)cc4F)CC3)nn12 [compound 10, 2-(4-(2,6-Difluoro-4-(morpholinomethyl)phenyl)piperazin-1-yl)-7-methylimidazo[1,5-f][1,2,4]triazin-4(3H)-one]
44.1 | Cc1ncc2c(=O)[nH]c(N3CCN(c4c(F)cc(CN5CCN(C)CC5)cc4F)CC3)nn12 [compound 11, 2-(4-(2,6-Difluoro-4-((4-methylpiperazin-1-yl)methyl)phenyl)piperazin-1-yl)-7-methylimidazo[1,5-f][1,2,4]triazin-4(3H)-one]
45.7 | Cc1ncc2c(=O)[nH]c(N3CCN(c4c(F)cc(C(C)O)cc4F)CC3)nn12 (stereo not shown) [compound 13, 2-(4-(2,6-Difluoro-4-(1-hydroxyethyl)phenyl)piperazin-1-yl)-7-methylimidazo[1,5-f][1,2,4]triazin-4(3H)-one]
69.2 | COC(C)c1cc(F)c(N2CCN(c3nn4c(C)ncc4c(=O)[nH]3)CC2)c(F)c1 (stereo not shown) [compound 14, 2-(4-(2,6-Difluoro-4-(1-methoxyethyl)phenyl)piperazin-1-yl)-7-methylimidazo[1,5-f][1,2,4]triazin-4(3H)-one]
67.2 | COCCOc1cc(F)c(C2(O)CCN(c3nn4c(C)ncc4c(=O)[nH]3)CC2)c(F)c1 [compound 17, 2-(4-(2,6-Difluoro-4-(2-methoxyethoxy)phenyl)-4-hydroxypiperidin-1-yl)-7-methylimidazo[5,1-f][1,2,4]triazin-4(3H)-one]
102 | COCCN(C)Cc1cc(F)c(N2CCN(c3nn4c(C)ncc4c(=O)[nH]3)CC2)c(F)c1 [compound 19, 2-(4-(2,6-Difluoro-4-(((2-methoxyethyl)(methyl)amino)methyl)phenyl)piperazin-1-yl)-7-methylimidazo[1,5-f][1,2,4]triazin-4(3H)-one]
93.4 | Cc1ncc2c(=O)[nH]c(N3CCN(c4c(F)cc(OCCN5CCCC5)cc4F)CC3)nn12 [compound 24, 2-(4-(2,6-Difluoro-4-(2-(pyrrolidin-1-yl)ethoxy)phenyl)piperazin-1-yl)-7-methylimidazo[1,5-f][1,2,4]triazin-4(3H)-one]
69.9 | Cc1ncc2c(=O)[nH]c(N3CCN(c4c(F)cc(OCCN5CCN(C)CC5)cc4F)CC3)nn12 [compound 25, 2-(4-(2,6-Difluoro-4-(2-(4-methylpiperazin-1-yl)ethoxy)phenyl)piperazin-1-yl)-7-methylimidazo[1,5-f][1,2,4]triazin-4(3H)-one]
63.1 | Cc1ncc2c(=O)[nH]c(N3CCN(c4c(F)cc(OCC(=O)N5CCCCC5)cc4F)CC3)nn12 [compound 28, 2-(4-(2,6-Difluoro-4-(2-oxo-2-(piperidin-1-yl)ethoxy)phenyl)piperazin-1-yl)-7-methylimidazo[1,5-f][1,2,4]triazin-4(3H)-one]
84.8 | Cc1ncc2c(=O)[nH]c(N3CCN(c4c(F)cc(OCC(=O)N5CCCC5)cc4F)CC3)nn12 [compound 29, 2-(4-(2,6-Difluoro-4-(2-oxo-2-(pyrrolidin-1-yl)ethoxy)phenyl)piperazin-1-yl)-7-methylimidazo[1,5-f][1,2,4]triazin-4(3H)-one]
171 | Cc1ncc2c(=O)[nH]c(N3CCN(c4c(F)cc(OCCN=[N+]=[N-])cc4F)CC3)nn12 [compound 31, 2-(4-(4-(2-Azidoethoxy)-2,6-difluorophenyl)piperazin-1-yl)-7-methylimidazo[1,5-f][1,2,4]triazin-4(3H)-one]
